Consider 23 compounds from patent publication US20150143553A1, “Methods And Compositions Comprising A Drosophila Model Of Amyotrophic Lateral Sclerosis” (priority 2013, published 2015).

Each structure is given as a SMILES string. Where a name gives a salt, the structure may show the parent alone.

The first assay concerns Drosophila larvae expressing wild-type TDP-43 in motor neurons. As to the kind of experiment: Drug screen: rescue of lethality caused by wild-type TDP-43 expression in motor neurons (D42 Gal4). It counts as in vivo. Conditions: transgene WT2; 30 μM in fly food. The text has this: […] Larvae expressing TDP-43 (wild type or mutant, as shown) are raised on drug containing food.
[…] Larvae expressing TDP-43 (wt or mutant) were raised on drug containing food.
Using a Drosophila model of ALS based on TDP-43 that recapitulates several aspects of the disease pathophysiology (33, 35), a drug screen aimed at identifying FDA approved compounds with neuroprotective potential in vivo were designed (FIG. 37A). […] This phenotype was used to screen for drug candidates with therapeutic potential as determined by their ability to rescue pupal lethality and produce viable adults with extended wings (FIG. 37A). […]
UAS TDP-43 males were crossed with D42-Gal4 female virgins on fly food containing either DMSO or pioglitazone. For DMSO controls, the same volume of DMSO as the corresponding drug concentration was added. Bromophenol blue was added to a final concentration of approximately 0.02% to ensure homogeneity. Crosses were made on drug food with 3 female virgins and 2 males in each vial, and were maintained at 25° C. unless noted. The parents were discarded after 5-7 days then the vials were screened for adult progeny with straight wings from day 14 to day 25. All adults were screened for TDP-43 expression by visualizing the YFP tag. Total number of pupae was counted on day 25. Percent survival was calculated using the formula (total number of straight-winged adults/total number of pupae)×100. All experiments were performed in triplicate.
As for `Cc1nc2n(c(=O)c1CCN1CCC(c3noc4cc(F)ccc34)CC1)CCCC2` [Risperidone], the “Preliminary rescue result: adults with normal wings” value (“Preliminary rescue result: adults” below) was 1 Adult Normal Wing Adults.

Regarding `COc1ccc(C2CNC(=O)C2)cc1OC1CCCC1` (centres unmarked) [Rolipram], the “Preliminary rescue result: adults” value is listed as 1 Adult Normal Wings Adults.

In the case of `CN1CCN(c2c(F)cc3c(=O)c(C(=O)O)cn4c3c2SCC4)CC1` [Rufloxacin], the “Preliminary rescue result: adults” value turned out to be 1 Adult Normal Wings Adults.

In the case of `CC1(C)[C@H](C(=O)O)N2C(=O)C[C@H]2S1(=O)=O` [Sulbactam], the “Preliminary rescue result: adults” value is on record as 1 Adult Normal Wings Adults.

Turning to `COc1cnc(NS(=O)(=O)c2ccc(N)cc2)nc1` [Sulfameter], the “Preliminary rescue result: adults” value was found to be 3 Adult Normal Wings Adults. The same measure, in the same setting: the result for `COc1cc2nc(N3CCN(C(=O)C4CCCO4)CC3)nc(N)c2cc1OC.Cl` (centres unmarked) [Terazosin HC1] reads 3 Adult Normal Wings Adults; that for `CC1(C)S[C@@H]2[C@H](NC(=O)[C@H](C(=O)[O-])c3ccsc3)C(=O)N2[C@H]1C(=O)[O-].[Na+].[Na+]` [Ticarcillin Sodiim], 1 Adult Normal Wings Adults; that for `CN(C)CCOc1ccc(/C(=C(/CCCl)c2ccccc2)c2ccccc2)cc1` [Toremifene], 1 Adult Normal Wings Adults. For the compound `CCCCNc1c(C(=O)OCC)c(C)nc2c1cnn2CC` [Tracazolate Hydrochloride], the “Preliminary rescue result: adults” value stood at 1 Adult Normal Wings Adults. As to `COc1ccccc1N1CCN(CCCNc2cc(=O)n(C)c(=O)n2C)CC1` [Urapidil Hydrochloride], the “Preliminary rescue result: adults” value is listed as 1 Adult Normal Wings Adults. For `C[C@H](CCC(=O)O)[C@H]1CC[C@H]2[C@@H]3[C@@H](O)C[C@@H]4C[C@H](O)CC[C@]4(C)[C@H]3CC[C@]12C` [Urosiol], the “Preliminary rescue result: adults” value is 2 Adult Normal Wings Adults. The same measure, in the same setting: the result for `COc1cc(-c2ccc(=O)[nH]n2)ccc1OC(F)F` [Zardaverine] reads 1 Adult Normal Wings Adults.

For `Cc1cc(CC(=O)[O-])n(C)c1C(=O)c1ccc(Cl)cc1.O.O.[Na+]` [Zomepirac Na Salt], the “Preliminary rescue result: adults” value was found to be 3 Adult Normal Wings Adults.

Still in this assay, the particulars now being: transgene WT2; 50 μM in fly food.
Regarding `CC(NCCc1ccc(O)cc1)C(O)c1ccc(O)cc1` (centres unmarked) [Ritodrine], the “Preliminary rescue result: adults” value was found to be 2 Adults Normal Wings. For the compound `CN[C@@H]1[C@@H](O)[C@@H](O[C@@H]2[C@@H](O)[C@H](O[C@H]3OC(CN)=CC[C@H]3N)[C@@H](N)C[C@H]2N)OC[C@]1(C)O` [Sisomicin Sulfate], the “Preliminary rescue result: adults” value was found to be 1 Adult Normal Wings Adults. With `Nc1ccc(S(N)(=O)=O)cc1` [Sulfanilamide], the “Preliminary rescue result: adults” value worked out at 1 Adult Normal Wings Adults. For the compound `Cc1noc(NS(=O)(=O)c2ccc(N)cc2)c1C` [Sulfisoxazole], the “Preliminary rescue result: adults” value came to 1 Adult Normal Wings Adults. As to `CCCCCCCCNC(C)C(O)c1ccc(SC(C)C)cc1` (centres unmarked) [Suloctidil], the “Preliminary rescue result: adults” value was 6 Adults Normal Wings. Turning to `CCN1CCCC1CNC(=O)c1cc(S(N)(=O)=O)ccc1OC` (centres unmarked) [Sulpiride], the “Preliminary rescue result: adults” value is recorded as 1 Adult Normal Wings Adults.

With `Nc1c2c(nc3ccccc13)CCCC2` [Tacrine Hydrochloride Hydrate], the “Preliminary rescue result: adults” value is on record as 4 Adults Normal Wings. Still for that read-out and setting: the result for `NC1CCN(c2nc3c(cc2F)c(=O)c(C(=O)O)cn3-c2ccc(F)cc2F)C1` (centres unmarked) [Tosufloxacin Hydrochloride] reads 3 Adult Normal Wings Adults.

For the compound `CCCc1nc(C)c2c(=O)[nH]c(-c3cc(S(=O)(=O)N4CCN(CC)CC4)ccc3OCC)nn12` [Vardenafil], the “Preliminary rescue result: adults” value was 3 Adult Normal Wings Adults. Regarding `CCN(C(C)=O)c1cccc(-c2ccnc3c(C#N)cnn23)c1` [Zaleplon], the “Preliminary rescue result: adults” value amounted to 1 Adult Normal Wings Adults.
